Reference: ChEMBL document CHEMBL1201862, “PubChem BioAssay data set” (2004)
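Protocol summary: plate cells (96-well), add compound at 5 concentrations, incubate 48 h, interpolate endpoints linearly. At the GI50, growth is halved.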 Activity calls are given as the source filed them. Cut-off read from the data, not from the text of the source: active = GI50 up to about 1.1 µM and inactive = higher.

What was measured:
Assay in all cases: growth of human tumour cells (NCI), 48 h
HT-29 = system: HT-29
OVCAR-4 = system: OVCAR-4
MOLT-4 = system: MOLT-4
K562 = system: K562
CAKI-1 = system: CAKI-1
HOP-62 = system: HOP-62
SF-268 = system: SF-268
SNB-75 = system: SNB-75
OVCAR-5 = system: OVCAR-5
NCI/ADR-RES = system: NCI/ADR-RES
CCRF-CEM = system: CCRF-CEM
NCI-H460 = system: NCI-H460
PC-3 = system: PC-3
HCC 2998 = system: HCC 2998
M14 = system: M14
SF-539 = system: SF-539
IGROV-1 = system: IGROV-1
NCI-H226 = system: NCI-H226
OVCAR-8 = system: OVCAR-8
NCI-H23 = system: NCI-H23
COLO 205 = system: COLO 205
SK-MEL-5 = system: SK-MEL-5
ACHN = system: ACHN
SW-620 = system: SW-620
SF-295 = system: SF-295
Malme-3M = system: Malme-3M
EKVX = system: EKVX
786-0 = system: 786-0
TK-10 = system: TK-10
BT-549 = system: BT-549
RXF 393 = system: RXF 393
HL-60 = system: HL-60
SN12C = system: SN12C
SNB-19 = system: SNB-19
SK-MEL-2 = system: SK-MEL-2
SK-OV-3 = system: SK-OV-3
HOP-92 = system: HOP-92
MDA-N = system: MDA-N
U-251 = system: U-251
MDA-MB-231 = system: MDA-MB-231
UACC-257 = system: UACC-257
RPMI-8226 = system: RPMI-8226
A549 = system: A549
MCF7 = system: MCF7
Hs-578T = system: Hs-578T
T47D = system: T47D
UACC-62 = system: UACC-62
MDA-MB-435 = system: MDA-MB-435
UO-31 = system: UO-31
SR = system: SR
SK-MEL-28 = system: SK-MEL-28
A498 = system: A498
HCT-116 = system: HCT-116
DU-145 = system: DU-145
KM12 = system: KM12
OVCAR-3 = system: OVCAR-3
HCT-15 = system: HCT-15
NCI-H522 = system: NCI-H522
LOX IMVI = system: LOX IMVI

In the case of O=C(CCSC1=NCCCN1)c1ccc(F)cc1, the GI50 (HT-29) is reported as 20.2 µM (inactive), the GI50 (OVCAR-4) is reported as 21.6 µM (inactive) and the GI50 (MOLT-4) is reported as 2.62 µM (inactive). The GI50 (K562) was 3.13 µM (inactive), the GI50 (CAKI-1) was 17.2 µM (inactive) and the GI50 (HOP-62) was 27.8 µM (inactive). The GI50 (SF-268) was 22.9 µM (inactive), the GI50 (SNB-75) was 19 µM (inactive) and the GI50 (OVCAR-5) was 15 µM (inactive). For the same compound, the GI50 (NCI/ADR-RES) was 28.1 µM (inactive), the GI50 (CCRF-CEM) was 2.61 µM (inactive) and the GI50 (NCI-H460) was 22 µM (inactive). For the same compound, the GI50 (PC-3) was 14.9 µM (inactive), the GI50 (HCC 2998) was 18.6 µM (inactive) and the GI50 (M14) was 15.6 µM (inactive). For the same compound, the GI50 (SF-539) was 15.7 µM (inactive), the GI50 (IGROV-1) was 18 µM (inactive) and the GI50 (NCI-H226) was 17.4 µM (inactive). The GI50 (OVCAR-8) was 31.9 µM (inactive), the GI50 (NCI-H23) was 19.4 µM (inactive) and the GI50 (COLO 205) was 5.98 µM (inactive). For the same compound, the GI50 (SK-MEL-5) was 18.9 µM (inactive), the GI50 (ACHN) was 15.5 µM (inactive) and the GI50 (SW-620) was 2.86 µM (inactive). The GI50 (SF-295) was 37.8 µM (inactive), the GI50 (Malme-3M) was 7.26 µM (inactive) and the GI50 (EKVX) was 12.7 µM (inactive). The GI50 (786-0) was 4.02 µM (inactive), the GI50 (TK-10) was 15.8 µM (inactive) and the GI50 (BT-549) was 18.2 µM (inactive). For the same compound, the GI50 (RXF 393) was 17.2 µM (inactive), the GI50 (HL-60) was 10.7 µM (inactive) and the GI50 (SN12C) was 22.2 µM (inactive). For the same compound, the GI50 (SNB-19) was 22.1 µM (inactive), the GI50 (SK-MEL-2) was 18.2 µM (inactive) and the GI50 (SK-OV-3) was 21.3 µM (inactive). For the same compound, the GI50 (HOP-92) was 20.6 µM (inactive), the GI50 (MDA-N) was 17.3 µM (inactive) and the GI50 (U-251) was 17.5 µM (inactive). For the same compound, the GI50 (MDA-MB-231) was 21.5 µM (inactive), the GI50 (UACC-257) was 18.8 µM (inactive) and the GI50 (RPMI-8226) was 2.15 µM (inactive). The GI50 (A549) was 20.4 µM (inactive), the GI50 (MCF7) was 4.41 µM (inactive) and the GI50 (Hs-578T) was 22 µM (inactive). For the same compound, the GI50 (T47D) was 21.9 µM (inactive), the GI50 (UACC-62) was 17.2 µM (inactive) and the GI50 (MDA-MB-435) was 18.5 µM (inactive). The GI50 (UO-31) was 5.83 µM (inactive), the GI50 (SR) was 3.3 µM (inactive) and the GI50 (SK-MEL-28) was 18.7 µM (inactive). For the same compound, the GI50 (A498) was 20.6 µM (inactive), the GI50 (HCT-116) was 20.1 µM (inactive) and the GI50 (DU-145) was 17.4 µM (inactive). The GI50 (KM12) was 19.7 µM (inactive), the GI50 (OVCAR-3) was 22.9 µM (inactive) and the GI50 (HCT-15) was 13.1 µM. For the same compound, the GI50 (NCI-H522) was 2.08 µM (inactive) and the GI50 (LOX IMVI) was 18.9 µM (inactive).

With C=CC[C@]1(C2=NC(C)(C)CO2)c2ccccc2-c2ccccc2[C@H]1C(C)=O the GI50 (HT-29) was 4.19 µM (inactive), the GI50 (OVCAR-4) was 15.6 µM (inactive) and the GI50 (MOLT-4) was 9.27 µM (inactive). For the same compound, the GI50 (K562) was 4.91 µM (inactive), the GI50 (CAKI-1) was 10.5 µM (inactive) and the GI50 (HOP-62) was 0.643 µM (active). For the same compound, the GI50 (SF-268) was 10 µM (inactive), the GI50 (SNB-75) was 10.9 µM (inactive) and the GI50 (OVCAR-5) was 19.9 µM (inactive). The GI50 (NCI/ADR-RES) was 4 µM (inactive), the GI50 (CCRF-CEM) was 7.1 µM (inactive) and the GI50 (NCI-H460) was 6.03 µM (inactive). For the same compound, the GI50 (PC-3) was 6.41 µM (inactive), the GI50 (HCC 2998) was 8.11 µM (inactive) and the GI50 (M14) was 7.76 µM (inactive). The GI50 (SF-539) was 10.8 µM (inactive), the GI50 (IGROV-1) was 8.38 µM (inactive) and the GI50 (NCI-H226) was 14 µM (inactive). For the same compound, the GI50 (OVCAR-8) was 15.7 µM (inactive), the GI50 (NCI-H23) was 12.7 µM (inactive) and the GI50 (COLO 205) was 4.41 µM (inactive). For the same compound, the GI50 (SK-MEL-5) was 3.54 µM (inactive), the GI50 (ACHN) was 12.5 µM (inactive) and the GI50 (SW-620) was 7.55 µM (inactive). The GI50 (SF-295) was 4.61 µM (inactive), the GI50 (Malme-3M) was 5.57 µM (inactive) and the GI50 (EKVX) was 15.6 µM (inactive). The GI50 (786-0) was 9.71 µM (inactive), the GI50 (TK-10) was 12.5 µM (inactive) and the GI50 (BT-549) was 16 µM (inactive). The GI50 (RXF 393) was 3.68 µM (inactive), the GI50 (HL-60) was 3.93 µM (inactive) and the GI50 (SN12C) was 15.6 µM (inactive). For the same compound, the GI50 (SNB-19) was 11.6 µM (inactive), the GI50 (SK-MEL-2) was 3.92 µM (inactive) and the GI50 (SK-OV-3) was 9.31 µM (inactive). For the same compound, the GI50 (HOP-92) was 16.4 µM (inactive), the GI50 (MDA-N) was 2.74 µM (inactive) and the GI50 (U-251) was 8.15 µM (inactive). For the same compound, the GI50 (MDA-MB-231) was 14.2 µM (inactive), the GI50 (UACC-257) was 6.05 µM (inactive) and the GI50 (RPMI-8226) was 7.23 µM (inactive). The GI50 (A549) was 9.31 µM (inactive), the GI50 (MCF7) was 4.22 µM (inactive) and the GI50 (Hs-578T) was 6.5 µM (inactive). The GI50 (T47D) was 13 µM (inactive), the GI50 (UACC-62) was 5.65 µM (inactive) and the GI50 (MDA-MB-435) was 3.64 µM (inactive). For the same compound, the GI50 (UO-31) was 14.1 µM (inactive), the GI50 (SR) was 3.27 µM (inactive) and the GI50 (SK-MEL-28) was 14.2 µM (inactive). For the same compound, the GI50 (A498) was 7.67 µM (inactive), the GI50 (HCT-116) was 5.4 µM (inactive) and the GI50 (DU-145) was 14.4 µM (inactive). The GI50 (KM12) was 5.73 µM (inactive), the GI50 (OVCAR-3) was 3.13 µM (inactive) and the GI50 (HCT-15) was 4.82 µM. For the same compound, the GI50 (NCI-H522) was 2.61 µM (inactive) and the GI50 (LOX IMVI) was 10.6 µM (inactive).

CCC(=O)Oc1c2ccsc2c(OC(=O)CC)c2ccsc12 was tested, and the GI50 (HT-29) was 2.41 µM (inactive), the GI50 (OVCAR-4) was 0.948 µM (active) and the GI50 (MOLT-4) was 0.75 µM (active). The GI50 (K562) was 0.461 µM (active), the GI50 (CAKI-1) was 2.42 µM (inactive) and the GI50 (HOP-62) was 0.849 µM (active). The GI50 (SF-268) was 0.518 µM (active), the GI50 (SNB-75) was 0.184 µM (active) and the GI50 (OVCAR-5) was 1.88 µM (inactive). The GI50 (NCI/ADR-RES) was 0.279 µM (active), the GI50 (CCRF-CEM) was 0.478 µM (active) and the GI50 (NCI-H460) was 1.89 µM (inactive). The GI50 (PC-3) was 0.339 µM (active), the GI50 (HCC 2998) was 1.93 µM (inactive) and the GI50 (M14) was 0.161 µM (active). For the same compound, the GI50 (SF-539) was 0.208 µM (active), the GI50 (IGROV-1) was 1.95 µM (inactive) and the GI50 (NCI-H226) was 2.06 µM (inactive). For the same compound, the GI50 (OVCAR-8) was 0.366 µM (active), the GI50 (NCI-H23) was 0.182 µM (active) and the GI50 (COLO 205) was 5.51 µM (inactive). For the same compound, the GI50 (SK-MEL-5) was 0.0753 µM (active), the GI50 (ACHN) was 0.419 µM (active) and the GI50 (SW-620) was 0.471 µM (active). For the same compound, the GI50 (SF-295) was 0.254 µM (active), the GI50 (Malme-3M) was 0.039 µM (active) and the GI50 (EKVX) was 0.871 µM (active). For the same compound, the GI50 (786-0) was 2.13 µM (inactive), the GI50 (TK-10) was 2.25 µM (inactive) and the GI50 (BT-549) was 0.174 µM (active). For the same compound, the GI50 (RXF 393) was 1 µM (active), the GI50 (HL-60) was 0.201 µM (active) and the GI50 (SN12C) was 0.353 µM (active). The GI50 (SNB-19) was 0.54 µM (active), the GI50 (SK-MEL-2) was 0.344 µM (active) and the GI50 (SK-OV-3) was 6.62 µM (inactive). The GI50 (HOP-92) was 1.42 µM (inactive), the GI50 (MDA-N) was 0.0555 µM (active) and the GI50 (U-251) was 0.389 µM (active). The GI50 (MDA-MB-231) was 0.232 µM (active), the GI50 (UACC-257) was 0.171 µM (active) and the GI50 (RPMI-8226) was 0.452 µM (active). For the same compound, the GI50 (A549) was 2.05 µM (inactive), the GI50 (MCF7) was 1.45 µM (inactive) and the GI50 (Hs-578T) was 0.372 µM (active). For the same compound, the GI50 (T47D) was 1.56 µM (inactive), the GI50 (UACC-62) was 0.217 µM (active) and the GI50 (MDA-MB-435) was 0.0604 µM (active). The GI50 (UO-31) was 0.51 µM (active), the GI50 (SR) was 0.297 µM (active) and the GI50 (SK-MEL-28) was 0.178 µM (active). The GI50 (A498) was 3.1 µM (inactive), the GI50 (HCT-116) was 0.332 µM (active) and the GI50 (DU-145) was 0.262 µM (active). For the same compound, the GI50 (KM12) was 1.8 µM (inactive), the GI50 (OVCAR-3) was 0.351 µM (active) and the GI50 (HCT-15) was 0.318 µM. The GI50 (NCI-H522) was 0.474 µM (active) and the GI50 (LOX IMVI) was 0.0661 µM (active).
